2 compounds from US7435832B2, “Crystals including a malic acid salt of a 3-pyrrole substituted 2-indolinone, and compositions thereof” (Pharmacia & Upjohn Company, priority 2001, dated 2008) can be followed below.

One may read the solubility as how much of the substance goes into solution per volume. Read a low solubility as a poorly soluble substance.

Structures can show the parent of a compound that is named as a salt.

What all share (format): physicochemical
A short description of data set [1]: Solid state stability study of bulk crystals (HPLC analysis, PXRD). To be noted: for Purity (Area %) / Total Impurities (Area %): HPLC. From the text: As referred to in the present application, “stable” in bulk drug stability tests means that at least about 97% by weight, preferably at least about 98% by weight, and more preferably at least about 99% by weight of the bulk drug remains unchanged after storage under the indicated conditions for the indicated time.
A solid state stability study of Crystal Form I of the L-malic acid salt of N-[2-(diethylamino)ethyl]-5-[(5-fluoro-1,2-dihydro-2-oxo-3H-indol-3-ylidene)methyl]-2,4-dimethyl-1H-pyrrole-3-carboxamide was also conducted (Table 2).

Data set [2] in a line: Dynamic moisture sorption gravimetry (DMSG), hygroscopicity. The note with it: for Water absorbed (moisture sorption): across the 0-90% relative humidity range, 25° C. How it is done:
X-ray diffraction (XRD) patterns were measured on a Scintag X2 diffractometer (Thermo ARL, Ecublens, Switzerland) equipped with a theta-theta goniometer. Melting points were determined using a TA Instruments 2920 differential scanning calorimeter (TA Instruments, New Castle, Del.) with standard crimped pans and a heating rate of 10° C./minute. Hygroscopicity was assessed by dynamic moisture sorption gravimetry (DMSG) using a Controlled Atmosphere Microbalance (Pharmacia Corp., Kalamazoo, Mich.). All chemicals used are available from Aldrich Chemical Co., Milwaukee, Wis., unless otherwise specified. N-[2-(diethylamino)ethyl]-5-[(5-fluoro-1,2-dihydro-2-oxo-3H-indol-3-ylidene)methyl]-2,4-dimethyl-1H-pyrrole-3-carboxamide was prepared as the free base by a procedure similar to that described in Example 80 of PCT International Publication No. WO 01/60814 (Tang et al.).
Dynamic Moisture Sorption Gravimetry (DMSG). DMSG isotherms were collected on the variable temperature controlled atmosphere microbalance. Approximately 10 mg samples were used in the balance. Samples were run as received. The humidity was sequentially set between 0 and 90% relative humidity (RH) in 3% RH steps. The mass was then measured every two minutes. The RH was changed to the next value when the mass of the sample was stable to within 0.5 microgram in 480 seconds. A Visual Basic program was used to control the data collection and export the information to an Excel spreadsheet.

Data set [3] can be described thus: Solubility in water. The note with it: in water at 25° C. The method, then: The solubility of Crystal Form I of the L-malic acid salt of N-[2-(diethylamino)ethyl]-5-[(5-fluoro-1,2-dihydro-2-oxo-3H-indol-3-ylidene)methyl]-2,4-dimethyl-1H-pyrrole-3-carboxamide was determined to be 5 mg/mL in water at 25° C.

Turning to `CCN(CC)CCNC(=O)c1c(C)[nH]c(/C=C2\C(=O)Nc3ccc(F)cc32)c1C` [Crystal Form I, L-malic acid salt of N-[2-(diethylamino)ethyl]-5-[(5-fluoro-1,2-dihydro-2-oxo-3H-indol-3-ylidene)methyl]-2,4-dimethyl-1H-pyrrole-3-carboxamide], the “Purity (Area %)” value came out at 99.6 Area % in data set [1] (2 weeks at 60° C./75% RH); 98.2 Area % in data set [1] (2 weeks at 60° C./ambient RH); 99.5 Area % in data set [1] (2 weeks at 80° C./ambient RH); 100.1 Area % in data set [1] (4 weeks at 60° C./75% RH); 100.4 Area % in data set [1] (4 weeks at 60° C./ambient RH); 98.0 Area % in data set [1] (4 weeks at 80° C./ambient RH). Further, the “Purity (Area %)” value in data set [1] (Initial) was 99.7 Area %. Further, the “Total Impurities (Area %)” value in data set [1] (2 weeks at 60° C./75% RH) is on record as 1.2 Area %; in data set [1] (2 weeks at 60° C./ambient RH) it was 1.1 Area %; in data set [1] (2 weeks at 80° C./ambient RH), 1.2 Area %; in data set [1] (4 weeks at 60° C./75% RH), 2.2 Area %; in data set [1] (4 weeks at 60° C./ambient RH), 1.2 Area %; in data set [1] (4 weeks at 80° C./ambient RH), 3.1 Area %. For the same compound, the “Total Impurities (Area %)” value in data set [1] (Initial) worked out at 1.5 Area %. Moreover, the Degradation after aging entry in data set [1] (four weeks at 60° C./ambient RH, 60° C./75% RH and 80° C./ambient RH) was “no significant degradation”. Also, the “Change in crystal form by powder X-ray diffraction” value in data set [1] (two-week stability samples) is reported as “no change in crystal form”. Also, the “Water absorbed (moisture sorption)” value in data set [2] was “less than 0.5%”. The compound also had a solubility in data set [3] of 5000 µg/mL.
As to `CCN(CC)CCNC(=O)c1c(C)[nH]c(/C=C2\C(=O)Nc3ccc(F)cc32)c1C` [Crystal Form II, L-malic acid salt of N-[2-(diethylamino)ethyl]-5-[(5-fluoro-1,2-dihydro-2-oxo-3H-indol-3-ylidene)methyl]-2,4-dimethyl-1H-pyrrole-3-carboxamide], in data set [2] (80% relative humidity), the “Water absorbed upon exposure to humidity” value is recorded as “at least 5 % by weight”. Further, the “Water absorbed (moisture sorption)” value in data set [2] is “over 15%”.
